Test results: patent US20230348369A1 (Cytokinetics, Inc., priority 2020, published 2023)
Like-named read-outs stand apart in the source and are kept apart here.

Molecular target: human NAMPT (Homo sapiens, UniProt P43490)
Test: Human recombinant enzyme assay (NMN fluorescence biochemical assay, activation of NAMPT)
How it was run: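 NMN production is detected fluorometrically (Ex 355/Em 460 nm) 40 min after acetophenone, KOH and formic acid derivatization. Reactions ran 60 min at ambient temperature: 6 nM human NAMPT, nicotinamide 150 μM, PRPP 20 μM, ATP 2.5 mM, buffered at pH 7.2 with 50 mM HEPES plus DTT, CHAPS, NaCl and 100 mM MgCl2.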

[1] = Table A, human recombinant NAMPT, NMN formation, 60 min
[2] = Table A, human recombinant NAMPT, NMN formation, 60 min, read-out: EC50 Human

human NAMPT, sequence (P43490 whole entry): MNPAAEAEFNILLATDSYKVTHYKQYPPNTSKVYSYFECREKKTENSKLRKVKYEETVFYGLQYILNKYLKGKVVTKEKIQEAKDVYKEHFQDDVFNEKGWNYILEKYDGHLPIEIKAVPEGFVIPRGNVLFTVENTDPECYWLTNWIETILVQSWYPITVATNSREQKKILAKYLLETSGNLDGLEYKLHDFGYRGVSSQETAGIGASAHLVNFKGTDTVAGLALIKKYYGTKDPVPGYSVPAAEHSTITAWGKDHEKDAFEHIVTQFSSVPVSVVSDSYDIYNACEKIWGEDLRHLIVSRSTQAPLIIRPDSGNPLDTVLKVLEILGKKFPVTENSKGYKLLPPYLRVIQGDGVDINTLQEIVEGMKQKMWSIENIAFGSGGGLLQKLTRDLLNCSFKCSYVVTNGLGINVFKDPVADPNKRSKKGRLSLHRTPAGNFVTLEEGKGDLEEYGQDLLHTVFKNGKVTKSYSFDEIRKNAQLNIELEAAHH

Compound	AC1.4 Human [1] [µM]	EC50 [2] [µM]	EC50 [µM]
COc1ccc(CNC(=O)NC2CC3(C2)CC(C(=O)N[C@@H]2CCc4ccccc42)C3)cc1 (stereo partly drawn) [Compound 91, (R)-N-(2,3-dihydro-1H-inden-1-yl)-6-(3-(4-methoxybenzyl)ureido)spiro[3.3]heptane-2-carboxamide]	3.7	13	
COc1ccc(CNC(=O)NC2CC3(C2)CC(C(=O)N[C@H]2CCc4ccccc42)C3)cc1 (stereo partly drawn) [Compound 92, (S)-N-(2,3-dihydro-1H-inden-1-yl)-6-(3-(4-methoxybenzyl)ureido)spiro[3.3]heptane-2-carboxamide]	2.9	13.5	
COc1ccc(CNC(=O)NC2CC3(C2)CC(C(=O)NC2CC(CO)c4ccccc42)C3)cc1 (stereo not shown) [Compound 93, N-(3-(hydroxymethyl)-2,3-dihydro-1H-inden-1-yl)-6-(3-(4-methoxybenzyl)ureido)spiro[3.3]heptane-2-carboxamide]	6.3	34.8	
COc1ccc(CNC(=O)NC2CC3(C2)CC(C(=O)NC2Cc4ccccc4C2O)C3)cc1 (stereo not shown) [Compound 94, N-(1-hydroxy-2,3-dihydro-1H-inden-2-yl)-6-(3-(4-methoxybenzyl)ureido)spiro[3.3]heptane-2-carboxamide]	11.0	38.7	
COc1ccc(CNC(=O)NC2CC3(C2)CC(C(=O)NC2Cc4ccccc4C2)C3)cc1 (stereo not shown) [Compound 95, N-(2,3-dihydro-1H-inden-2-yl)-6-(3-(4-methoxybenzyl)ureido)spiro[3.3]heptane-2-carboxamide]	4.3	13.3	
COc1ccc(CNC(=O)NC2CC3(C2)CC(C(=O)N[C@@H]2CCc4ccccc4C2)C3)cc1 (stereo partly drawn) [Compound 96, (R)-6-(3-(4-methoxybenzyl)ureido)-N-(1,2,3,4-tetrahydronaphthalen-2-yl)spiro[3.3]heptane-2-carboxamide]	2.6	4.1	
COc1ccc(CNC(=O)NC2CC3(C2)CC(C(=O)N2CCCc4cc(F)ccc42)C3)cc1 (stereo not shown) [Compound 101, 1-(6-(6-fluoro-1,2,3,4-tetrahydroquinoline-1-carbonyl)spiro[3.3]heptan-2-yl)-3-(4-methoxybenzyl)urea]	0.2	2.7	
COc1ccc(CNC(=O)NC2CC3(C2)CC(C(=O)N2CCCc4ccc(F)c(F)c42)C3)cc1 (stereo not shown) [Compound 102]	8.0	33.3	
COc1ccc(CNC(=O)NC2CC3(C2)CC(C(=O)N2CCCc4cc(OC(F)F)ccc42)C3)cc1 (stereo not shown) [Compound 103, 1-(6-(6-(difluoromethoxy)-1,2,3,4-tetrahydroquinoline-1-carbonyl)spiro[3.3]heptan-2-yl)-3-(4-methoxybenzyl)urea]	0.3	7	
COc1ccc(CNC(=O)NC2CC3(C2)CC(C(=O)N2CCCc4cc(C(F)(F)F)ccc42)C3)cc1 (stereo not shown) [Compound 104, 1-(4-methoxybenzyl)-3-(6-(6-(trifluoromethyl)-1,2,3,4-tetrahydroquinoline-1-carbonyl)spiro[3.3]heptan-2-yl)urea]	0.5	10.7	
COc1ccc(CNC(=O)NC2CC3(C2)CC(C(=O)N2CCCc4c(F)cccc42)C3)cc1 (stereo not shown) [Compound 105, 1-(6-(5-fluoro-1,2,3,4-tetrahydroquinoline-1-carbonyl)spiro[3.3]heptan-2-yl)-3-(4-methoxybenzyl)urea]	0.1	2.2	
COc1ccc(CNC(=O)NC2CC3(C2)CC(C(=O)N2CCCc4ccc(F)cc42)C3)cc1 (stereo not shown) [Compound 106, 1-(6-(7-fluoro-1,2,3,4-tetrahydroquinoline-1-carbonyl)spiro[3.3]heptan-2-yl)-3-(4-methoxybenzyl)urea]	0.1	1.8	
COc1ccc(CNC(=O)NC2CC3(C2)CC(C(=O)N2CCCc4cc(OC(F)(F)F)ccc42)C3)cc1 (stereo not shown) [Compound 107, 1-(4-methoxybenzyl)-3-(6-(6-(trifluoromethoxy)-1,2,3,4-tetrahydroquinoline-1-carbonyl)spiro[3.3]heptan-2-yl)urea]	2.9	48.8	
COc1ccc(CNC(=O)NC2CC3(C2)CC(C(=O)N2CCCc4ccc(C)cc42)C3)cc1 (stereo not shown) [Compound 108, 1-(4-methoxybenzyl)-3-(6-(7-methyl-1,2,3,4-tetrahydroquinoline-1-carbonyl)spiro[3.3]heptan-2-yl)urea]	0.1	1.4	
CC(C)(O)CN1CCN(C(=O)C2CC3(CC(NC(=O)NCc4ccc(F)cc4)C3)C2)CC1 (stereo not shown) [Compound 109, 1-(4-fluorobenzyl)-3-(6-(4-(2-hydroxy-2-methylpropyl)piperazine-1-carbonyl)spiro[3.3]heptan-2-yl)urea]	3.5	10.2	
COc1ccc(CNC(=O)NC2CC3(C2)CC(C(=O)N2CCN(C4COC4)CC2)C3)cc1 (stereo not shown) [Compound 111, 1-(4-methoxybenzyl)-3-(6-(4-(oxetan-3-yl)piperazine-1-carbonyl)spiro[3.3]heptan-2-yl)urea]	1.0	26.8	

Compound	AC1.4 Human [1] [µM]	EC50 [2] [µM]	EC50 [µM]
COc1ccc(CNC(=O)NC2CC3(C2)CC(C(=O)N2CCN(CC4CC4)CC2)C3)cc1 (stereo not shown) [Compound 112, 1-(6-(4-(cyclopropylmethyl)piperazine-1-carbonyl)spiro[3.3]heptan-2-yl)-3-(4-methoxybenzyl)urea]	3.0	46.9	
COc1ccc(CNC(=O)NC2CC3(C2)CC(C(=O)N2CCN(C)CC2CO)C3)cc1 (stereo not shown) [Compound 113, 1-(6-(2-(hydroxymethyl)-4-methylpiperazine-1-carbonyl)spiro[3.3]heptan-2-yl)-3-(4-methoxybenzyl)urea]	3.8	51.6	
O=C(NCc1ccc(Cl)cc1)NC1CC2(C1)CC(NC(=O)c1ccccc1)C2 (stereo not shown) [Compound 114, N-(6-(3-(4-chlorobenzyl)ureido)spiro[3.3]heptan-2-yl)benzamide]	11.0	33.1	
O=C(Cc1ccccc1)NC1CC2(C1)CC(NC(=O)NCc1ccc(Cl)cc1)C2 (stereo not shown) [Compound 115, N-(6-(3-(4-chlorobenzyl)ureido)spiro[3.3]heptan-2-yl)-2-phenylacetamide]	10.2	14.7	
COc1ccc(CNC(=O)NC2CC3(C2)CN(S(=O)(=O)c2ccccc2Cl)C3)cc1 [Compound 116, 1-(2-((2-chlorophenyl)sulfonyl)-2-azaspiro[3.3]heptan-6-yl)-3-(4-methoxybenzyl)urea]	8.0		51.3
COc1ccc(CNC(=O)NC2CC3(C2)CN(S(=O)(=O)Cc2ccccc2Cl)C3)cc1 [Compound 117, 1-(2-((2-chlorobenzyl)sulfonyl)-2-azaspiro[3.3]heptan-6-yl)-3-(4-methoxybenzyl)urea]	3.2	33.9	
COc1ccc(CNC(=O)NC2CC3(C2)CN(S(=O)(=O)CCc2ccccc2Cl)C3)cc1 [Compound 118, 1-(2-((2-chlorophenethyl)sulfonyl)-2-azaspiro[3.3]heptan-6-yl)-3-(4-methoxybenzyl)urea]	3.0	14.2	
O=C(NCc1ccc(Cl)cc1)NC1CC2(C1)CC(N(Cc1ccccc1)Cc1ccccc1)C2 (stereo not shown) [Compound 119, 1-(4-chlorobenzyl)-3-(6-(dibenzylamino)spiro[3.3]heptan-2-yl)urea]	3.8	16.7	
COc1ccc(CNC(=O)NC2CC3(C2)CC(C(=O)N2CCN(C(C)C)CC2)C3)cc1 (stereo not shown) [Compound 122, 1-(6-(4-isopropylpiperazine-1-carbonyl)spiro[3.3]heptan-2-yl)-3-(4-methoxybenzyl)urea]	5.9	47.6	
COc1ccc(CNC(=O)NC2CC3(C2)CC(C(=O)N2CCN(Cc4cnn(C)c4)CC2)C3)cc1 (stereo not shown) [Compound 123, 1-(4-methoxybenzyl)-3-(6-(4-((1-methyl-1H-pyrazol-4-yl)methyl)piperazine-1-carbonyl)spiro[3.3]heptan-2-yl)urea]	2.8	51.5	
COc1ccc(CNC(=O)NC2CC3(C2)CC(C(=O)N2CCN(Cc4ccncc4)CC2)C3)cc1 (stereo not shown) [Compound 124, 1-(4-methoxybenzyl)-3-(6-(4-(pyridin-4-ylmethyl)piperazine-1-carbonyl)spiro[3.3]heptan-2-yl)urea]	1.3	24.9	
COc1ccc(CNC(=O)NC2CC3(C2)CC(C(=O)N2CCN(Cc4ccccn4)CC2)C3)cc1 (stereo not shown) [Compound 125, 1-(4-methoxybenzyl)-3-(6-(4-(pyridin-2-ylmethyl)piperazine-1-carbonyl)spiro[3.3]heptan-2-yl)urea]	7.9	51.2	
COc1ccc(CNC(=O)NC2CC3(CC(CN4CCCc5c(F)cc(F)cc54)C3)C2)cc1 (stereo not shown) [Compound 127, 1-(6-((5,7-difluoro-3,4-dihydroquinolin-1(2H)-yl)methyl)spiro[3.3]heptan-2-yl)-3-(4-methoxybenzyl)urea]	1.4	33.1	
COc1ccc(CNC(=O)NC2CC3(CC(CN4CCc5ccccc54)C3)C2)cc1 (stereo not shown) [Compound 128, 1-(6-(indolin-1-ylmethyl)spiro[3.3]heptan-2-yl)-3-(4-methoxybenzyl)urea]	0.6	20.8	
COc1ccc(CNC(=O)NC2CC3(CC(CN4Cc5ccccc5C4)C3)C2)cc1 (stereo not shown) [Compound 129, 1-(6-(isoindolin-2-ylmethyl)spiro[3.3]heptan-2-yl)-3-(4-methoxybenzyl)urea]	7.3	30.2	
COc1ccc(CNC(=O)NC2CC3(C2)CN(S(=O)(=O)C2CC4CCC2C4)C3)cc1 (stereo not shown) [Compound 130, 1-(2-(bicyclo[2.2.1]heptan-2-ylsulfonyl)-2-azaspiro[3.3]heptan-6-yl)-3-(4-methoxybenzyl)urea]	18.1	48	
